Assay results from ChEMBL document CHEMBL1138591, “Hair growth stimulator property of thienyl substituted pyrazole carboxamide derivatives as a CB1 receptor antagonist with in vivo antiobesity effect” (Bioorg Med Chem Lett, 2009).
Values belong to the molecule of their own block, whether it stands above or below them. Calls of active or inactive are those of the source. No cut-off for these calls is given here.

Legend:
Cannabinoid receptor 1 = Cannabinoid receptor 1 (Homo sapiens, UniProt P21554); experiment: Antagonist activity at human cannabinoid CB1 receptor expressed in CHOK1 cells assessed as cAMP activity; format: functional, cell-based, CHO-K1
Chain of Cannabinoid receptor 1 (P21554 whole entry): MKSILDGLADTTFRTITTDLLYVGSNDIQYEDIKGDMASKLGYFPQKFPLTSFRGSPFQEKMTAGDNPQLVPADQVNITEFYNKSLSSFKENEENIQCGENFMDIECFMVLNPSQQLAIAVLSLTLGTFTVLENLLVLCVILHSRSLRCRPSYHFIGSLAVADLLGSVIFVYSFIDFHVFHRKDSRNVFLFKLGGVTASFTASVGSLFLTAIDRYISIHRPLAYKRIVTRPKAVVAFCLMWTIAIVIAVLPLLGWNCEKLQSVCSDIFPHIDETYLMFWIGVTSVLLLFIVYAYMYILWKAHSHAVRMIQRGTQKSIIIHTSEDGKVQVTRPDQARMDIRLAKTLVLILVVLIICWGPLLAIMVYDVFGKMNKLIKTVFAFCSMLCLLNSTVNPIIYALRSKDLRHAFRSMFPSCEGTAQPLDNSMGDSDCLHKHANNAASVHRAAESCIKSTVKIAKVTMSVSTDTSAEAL

Cannabinoid receptor 2 = Cannabinoid receptor 2 (Homo sapiens, UniProt P34972); experiment: Antagonist activity at human cannabinoid CB2 receptor expressed in CHOK1 cells assessed as cAMP activity; format: functional, cell-based, CHO-K1
Chain of Cannabinoid receptor 2 (P34972 whole entry): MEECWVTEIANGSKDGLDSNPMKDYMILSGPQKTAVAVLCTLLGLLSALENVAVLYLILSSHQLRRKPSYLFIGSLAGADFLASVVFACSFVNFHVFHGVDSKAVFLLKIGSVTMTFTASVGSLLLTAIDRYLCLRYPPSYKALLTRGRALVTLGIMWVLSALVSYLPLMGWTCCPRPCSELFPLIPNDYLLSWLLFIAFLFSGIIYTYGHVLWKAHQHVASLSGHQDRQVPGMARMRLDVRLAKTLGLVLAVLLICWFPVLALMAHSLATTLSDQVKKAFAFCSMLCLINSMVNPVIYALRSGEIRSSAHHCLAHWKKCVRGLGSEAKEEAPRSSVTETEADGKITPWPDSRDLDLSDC

Rattus norvegicus = experiment: Antiobesity activity in Zucker fa/fa rat assessed as inhibition of 5% sucrose solution intake at 10 mg/kg administered as single dose up to 4 hrs relative to control; format: functional
[1] = Plasma concentration in fasted Zucker fa/fa rat at 30 mg/kg, po after 3 hrs; format: ADME, organism-based; set-up: dose 30 mg/kg, route oral
Mus musculus [2] = experiment: Hair growth stimulatory activity in high fat diet-induced C57BL/6J mouse assessed as bald area at 10 mg/kg, po administered once daily for 28 days measured after 28 days (Rvb=0.346 +/- 0.079 cm'2); format: functional
Mus musculus [3] = experiment: Hair growth stimulatory activity in high fat diet-induced C57BL/6J mouse at 10 mg/kg administered tropically for 28 days measured after 28 days; format: functional, organism-based; set-up: dose 10 mg/kg
[4] = Drug level in fasted Zucker fa/fa rat brain at 30 mg/kg, po after 3 hrs; format: ADME, organism-based; set-up: dose 30 mg/kg, route oral; conditions: read-out: Drug uptake
[5] = Drug level in fasted Zucker fa/fa rat white adipose tissue at 30 mg/kg, po after 3 hrs; format: ADME, organism-based; set-up: dose 30 mg/kg, route oral; conditions: read-out: Drug uptake
[6] = Drug level in fasted Zucker fa/fa rat white adipose tissue assessed per gram of tissue at 30 mg/kg, po after 3 hrs; format: ADME, organism-based; set-up: dose 30 mg/kg, route oral; conditions: read-out: Drug uptake
Mus musculus [7] = experiment: Antiobesity activity in high fat diet-induced obese C57BL/6J mouse model assessed as reduction in food intake at 10 mg/kg, po administered once daily for 28 days; format: functional, organism-based; set-up: dose 10 mg/kg
Mus musculus [8] = experiment: Hair growth stimulatory activity in high fat diet-induced C57BL/6J mouse at 10 mg/kg, po administered once daily for 28 days measured after 28 days; format: functional, organism-based; set-up: dose 10 mg/kg
Mus musculus [9] = experiment: Antiobesity activity in high fat diet-induced obese C57BL/6J mouse model assessed as reduction in body weight gain at 10 mg/kg, po administered once daily for 28 days; format: functional, organism-based; set-up: dose 10 mg/kg
Mus musculus [10] = experiment: Inhibition of WIN-55212-2-induced analgesia in Swiss albino mouse assessed as maximal possible effect at 1 mg/kg po by hot plate method; format: functional; set-up: scale not given: the % may be the effect or the level left
Mus musculus [11] = experiment: Inhibition of WIN-55212-2-induced analgesia in Swiss albino mouse assessed as maximal possible effect at 3 mg/kg po by hot plate method; format: functional; set-up: scale not given: the % may be the effect or the level left
Mus musculus [12] = experiment: Inhibition of WIN-55212-2-induced analgesia in Swiss albino mouse assessed as maximal possible effect at 5 mg/kg po by hot plate method; format: functional; set-up: scale not given: the % may be the effect or the level left
Mus musculus [13] = experiment: Inhibition of WIN-55212-2-induced analgesia in Swiss albino mouse assessed as maximal possible effect at 10 mg/kg po by hot plate method; format: functional; set-up: scale not given: the % may be the effect or the level left
Mus musculus [14] = experiment: Inhibition of WIN-55212-2-induced catalepsy in Swiss albino mouse assessed as immobility on ring at 1 mg/kg po up to 300 seconds by ring test; format: functional; set-up: scale not given: the % may be the effect or the level left
Mus musculus [15] = experiment: Inhibition of WIN-55212-2-induced catalepsy in Swiss albino mouse assessed as immobility on ring at 3 mg/kg po up to 300 seconds by ring test; format: functional; set-up: scale not given: the % may be the effect or the level left
Mus musculus [16] = experiment: Inhibition of WIN-55212-2-induced catalepsy in Swiss albino mouse assessed as immobility on ring at 5 mg/kg po up to 300 seconds by ring test; format: functional; set-up: scale not given: the % may be the effect or the level left
Mus musculus [17] = experiment: Inhibition of WIN-55212-2-induced catalepsy in Swiss albino mouse assessed as immobility on ring at 10 mg/kg po up to 300 seconds by ring test; format: functional; set-up: scale not given: the % may be the effect or the level left
Mus musculus [18] = experiment: Effect on WIN-55212-2-induced locomotor activity in Swiss albino mouse assessed as number of square crossed at 1 mg/kg po up to 300 seconds (RbV=20.67 +/- 3.38 squares); format: functional
Mus musculus [19] = experiment: Effect on WIN-55212-2-induced locomotor activity in Swiss albino mouse assessed as number of square crossed at 3 mg/kg po up to 300 seconds (RbV=20.67 +/- 3.38 squares); format: functional
Mus musculus [20] = experiment: Effect on WIN-55212-2-induced locomotor activity in Swiss albino mouse assessed as number of square crossed at 5 mg/kg po up to 300 seconds (RbV=20.67 +/- 3.38 squares); format: functional
Mus musculus [21] = experiment: Effect on WIN-55212-2-induced locomotor activity in Swiss albino mouse assessed as number of square crossed at 10 mg/kg po up to 300 seconds (RbV=20.67 +/- 3.38 squares); format: functional
[22] = Tmax in fasted Zucker fa/fa rat at 30 mg/kg, po; format: ADME, organism-based; set-up: dose 30 mg/kg, route oral; conditions: in vivo
[23] = Cmax in fasted Zucker fa/fa rat at 30 mg/kg, po; format: ADME, organism-based; set-up: dose 30 mg/kg, route oral; conditions: in vivo
[24] = Half life in fasted Zucker fa/fa rat at 30 mg/kg, po; format: ADME, organism-based; set-up: dose 30 mg/kg, route oral; conditions: in vivo
[25] = AUC (0 to infinity) in fasted Zucker fa/fa rat at 30 mg/kg, po; format: ADME, organism-based; set-up: time infinity, dose 30 mg/kg, route oral; conditions: plasma
[26] = Drug level in fasted Zucker fa/fa rat brain assessed per gram of brain at 30 mg/kg, po after 3 hrs; format: ADME, organism-based; set-up: dose 30 mg/kg, route oral; conditions: read-out: Drug uptake
Mus musculus [27] = species on record: Mus musculus; conditions: Swiss albino, 1 mg/kg
Description: Inhibition of WIN-55212-2-induced hypothermia in Swiss albino mouse assessed as change in body temperature at 1 mg/kg po

Mus musculus [28] = species on record: Mus musculus; conditions: Swiss albino, 3 mg/kg
Description: Inhibition of WIN-55212-2-induced hypothermia in Swiss albino mouse assessed as change in body temperature at 3 mg/kg po

Mus musculus [29] = species on record: Mus musculus; conditions: Swiss albino, 5 mg/kg
Description: Inhibition of WIN-55212-2-induced hypothermia in Swiss albino mouse assessed as change in body temperature at 5 mg/kg po

Mus musculus [30] = species on record: Mus musculus; conditions: Swiss albino, 10 mg/kg
Description: Inhibition of WIN-55212-2-induced hypothermia in Swiss albino mouse assessed as change in body temperature at 10 mg/kg po

Compound: Cc1c(C(=O)NN2CC3CCCC3C2)nn(-c2ccc(Cl)cc2Cl)c1-c1ccc(Cl)s1 (stereo unspecified)
- EC50 (Cannabinoid receptor 1): 0.8 µM
- EC50 (Cannabinoid receptor 2): 15.7 µM
- inhibition in vivo at 10 mg/kg (Rattus norvegicus): 26.3%

Compound: Cc1c(C(=O)NN2CCOCC2)nn(-c2ccc(Cl)cc2Cl)c1-c1ccc(Cl)s1
- EC50 (Cannabinoid receptor 1): 0.69 µM
- EC50 (Cannabinoid receptor 2): 7.43 µM
- inhibition in vivo at 10 mg/kg (Rattus norvegicus): 31.5%

Compound: Cc1c(C(=O)NN2CCCCC2)nn(-c2ccc(Cl)cc2Cl)c1-c1ccc(Br)s1
- EC50 (Cannabinoid receptor 1): 0.4 µM
- EC50 (Cannabinoid receptor 2): 23.2 µM
- inhibition in vivo at 10 mg/kg (Rattus norvegicus): 37.8%

Compound: Cc1c(C(=O)NN2CCCCC2)nn(-c2ccc(Cl)cc2Cl)c1-c1ccc(I)s1
- EC50 (Cannabinoid receptor 1): 0.32 µM
- EC50 (Cannabinoid receptor 2): 29.4 µM
- inhibition in vivo at 10 mg/kg (Rattus norvegicus): 42.1%

Compound: Cc1c(C(=O)NN2CCCCC2)nn(-c2ccc(Cl)cc2Cl)c1-c1ccc(Cl)s1
- concentration at 3 h [6]: 2970 ng/g
- concentration at 3 h [1]: 850 ng/mL
- Activity (Mus musculus [7]): Active
- Activity (Mus musculus [2]): 0.011 cm2
- Activity (Mus musculus [8]): Active
- Activity (Mus musculus [3]): inactive
- EC50 (Cannabinoid receptor 1): 0.58 µM
- EC50 (Cannabinoid receptor 2): 23.7 µM
- inhibition in vivo at 10 mg/kg (Rattus norvegicus): 48%
- Activity (Mus musculus [9]): Active
- Activity (Mus musculus [10]): 34.84%
- Activity (Mus musculus [11]): 12.28%
- Activity (Mus musculus [12]): 4.12%
- Activity (Mus musculus [13]): 4.35%
- Activity (Mus musculus [14]): 80.73%
- Activity (Mus musculus [15]): 73.13%
- Activity (Mus musculus [16]): 58.13%
- Activity (Mus musculus [17]): 41.8%
- Activity (Mus musculus [18]): 69.8
- Activity (Mus musculus [19]): 109.2
- Activity (Mus musculus [20]): 126.5
- Activity (Mus musculus [21]): 171.4
- Tmax [22]: 1.4 h
- Cmax [23]: 520 ng/mL
- half-life [24]: 20.8 h
- AUC(0-inf) [25]: 12400 ng·h/mL
- concentration at 3 h [4]: 210 ng/mL
- concentration at 3 h [26]: 640 ng/g
- concentration at 3 h [5]: 980 ng/mL
- deltaT (Mus musculus [27]): 2.56 °C
- deltaT (Mus musculus [28]): 1.92 °C
- deltaT (Mus musculus [29]): 0.23 °C
- deltaT (Mus musculus [30]): 0.23 °C

Compound: CCc1c(C(=O)NN2CCCCC2)nn(-c2ccc(Cl)cc2Cl)c1-c1ccc(Cl)s1
- EC50 (Cannabinoid receptor 1): 0.54 µM
- EC50 (Cannabinoid receptor 2): 25.9 µM
- inhibition in vivo at 10 mg/kg (Rattus norvegicus): 31.3%

Continued, in another order:

- concentration at 3 h [1]: 400 ng/mL
- concentration at 3 h [4]: 150 ng/mL
- concentration at 3 h [5]: 1400 ng/mL
Compound: Cc1c(C(=O)NN2CCCCC2)nn(-c2ccc(Cl)cc2Cl)c1-c1ccc(Cl)cc1 [RIMONABANT]
- Activity (Mus musculus [2]): 0.156 cm2
- Activity (Mus musculus [3]): inactive
- inhibition in vivo at 10 mg/kg (Rattus norvegicus): 40.1%

- EC50 (Cannabinoid receptor 1): 1.1 µM
- EC50 (Cannabinoid receptor 2): 12.8 µM
Compound: Cc1c(C(=O)NN2CCCCCC2)nn(-c2ccc(Cl)cc2Cl)c1-c1ccc(Cl)s1
- inhibition in vivo at 10 mg/kg (Rattus norvegicus): 20.1%

- EC50 (Cannabinoid receptor 1): 1.33 µM
- EC50 (Cannabinoid receptor 2): 7.55 µM
Compound: Cc1c(C(=O)NN2CCCCC2)nn(-c2ccc(Cl)cc2Cl)c1-c1cccs1
- inhibition in vivo at 10 mg/kg (Rattus norvegicus): 12.4%

- EC50 (Cannabinoid receptor 1): 0.51 µM
- EC50 (Cannabinoid receptor 2): 19.5 µM
Compound: CCc1c(C(=O)NN2CCCCC2)nn(-c2ccc(Cl)cc2Cl)c1-c1ccc(Br)s1
- inhibition in vivo at 10 mg/kg (Rattus norvegicus): 39.2%

- EC50 (Cannabinoid receptor 1): 1 µM
- EC50 (Cannabinoid receptor 2): 20.9 µM
Compound: Cc1c(C(=O)NN2CCCC2)nn(-c2ccc(Cl)cc2Cl)c1-c1ccc(Cl)s1
- inhibition in vivo at 10 mg/kg (Rattus norvegicus): 34.3%
